Experimental data as given in paper PMC9743148 (Annals of oncology : official journal of the European …, 2020).

Tested on: patients with advanced solid tumors
Test: Treatment-emergent adverse events
Type: in vivo, human
Conditions: Combined q.d. cohorts (n = 44)

C=CC(=O)N1CC[C@H](n2nc(C#Cc3cc(OC)cc(OC)c3)c3c(N)ncnc32)C1 [futibatinib]
6 (14) n (%): Abdominal pain TEAE, Any grade | Alopecia TEAE, Any grade | Alopecia TEAE, Grade 1 | Anemia TEAE, Grade 2 | Asthenia TEAE, Grade 2 | Dose reduction because of TEAE, Grade 3
0 (0) n (%): ALT increased TEAE, Grade 4 | AST increased TEAE, Grade 4 | Abdominal pain TEAE, Grade 4 | Alopecia TEAE, Grade 2 | Alopecia TEAE, Grade 3 | Alopecia TEAE, Grade 4 | Anemia TEAE, Grade 4 | Asthenia TEAE, Grade 3 | Asthenia TEAE, Grade 4 | Back pain TEAE, Grade 3 | Back pain TEAE, Grade 4 | Constipation TEAE, Grade 4 | Cough TEAE, Grade 2 | Cough TEAE, Grade 3 | Cough TEAE, Grade 4 | Decreased appetite TEAE, Grade 3 | Decreased appetite TEAE, Grade 4 | Diarrhea TEAE, Grade 4 | Dose reduction because of TEAE, Grade 1 | Dosing delay/interruption because of TEAE, Grade 4 | Dry eye TEAE, Grade 3 | Dry eye TEAE, Grade 4
21 (48) n (%): Any TEAE, Grade 3
3 (7) n (%): ALT increased TEAE, Grade 3 | Any TEAE, Grade 4 | Asthenia TEAE, Grade 1 | Back pain TEAE, Grade 1
10 (23) n (%): Dry mouth TEAE, Grade 1
4 (9) n (%): ALT increased TEAE, Grade 1 | ALT increased TEAE, Grade 2 | AST increased TEAE, Grade 1 | Abdominal pain TEAE, Grade 2 | Constipation TEAE, Grade 2 | Dry eye TEAE, Grade 1
26 (59) n (%): Dosing delay/interruption because of TEAE, Any grade
5 (11) n (%): AST increased TEAE, Grade 2 | Any TEAE, Grade 1 | Back pain TEAE, Any grade | Cough TEAE, Any grade | Cough TEAE, Grade 1 | Decreased appetite TEAE, Grade 1 | Diarrhea TEAE, Grade 2 | Dry eye TEAE, Any grade
1 (2) n (%): Abdominal pain TEAE, Grade 1 | Abdominal pain TEAE, Grade 3 | Anemia TEAE, Grade 1 | Any treatment-related AE, Grade 4 | Constipation TEAE, Grade 3 | Diarrhea TEAE, Grade 3 | Dose reduction because of TEAE, Grade 2 | Dose reduction because of TEAE, Grade 4 | Dosing delay/interruption because of TEAE, Grade 1 | Dry eye TEAE, Grade 2 | Dry mouth TEAE, Grade 2
18 (41) n (%): Constipation TEAE, Any grade
2 (5) n (%): AST increased TEAE, Grade 3 | Anemia TEAE, Grade 3 | Back pain TEAE, Grade 2 | Decreased appetite TEAE, Grade 2
44 (100) n (%): Any TEAE, Any grade
16 (36) n (%): Any treatment-related AE, Grade 3 | Dosing delay/interruption because of TEAE, Grade 3
11 (25) n (%): ALT increased TEAE, Any grade | AST increased TEAE, Any grade | Any TEAE, Grade 2 | Any treatment-related AE, Grade 2 | Dry mouth TEAE, Any grade
7 (16) n (%): Decreased appetite TEAE, Any grade
13 (30) n (%): Any treatment-related AE, Grade 1 | Constipation TEAE, Grade 1
8 (18) n (%): Dose reduction because of TEAE, Any grade
9 (20) n (%): Anemia TEAE, Any grade | Asthenia TEAE, Any grade | Diarrhea TEAE, Grade 1 | Dosing delay/interruption because of TEAE, Grade 2
15 (34) n (%): Diarrhea TEAE, Any grade
41 (93) n (%): Any treatment-related AE, Any grade
